Data: ChEMBL document CHEMBL3132769, “Fragment growing to retain or alter the selectivity of anchored kinase hinge-binding fragments” (Medchemcomm, 2014)

Experiments:
[1] = molecular target: Insulin-like growth factor 1 receptor (Homo sapiens) (UniProt P08069); test: Inhibition of human IGF1R catalytic domain expressed in baculovirus assessed as substrate phosphorylation using fluorescence-labelled peptides as substrate at 0.06 uM after 90 mins by microfluidic peptide phosphorylation assay
[2] = molecular target: Protein kinase C delta type (Homo sapiens) (UniProt Q05655); test: Inhibition of human truncated PKC delta expressed in baculovirus assessed as substrate phosphorylation using fluorescence-labelled peptides as substrate at 0.06 uM after 90 mins by microfluidic peptide phosphorylation assay
Sequence of Protein kinase C delta type (Homo sapiens) (Q05655 whole entry, looked up, the tested form may be a part): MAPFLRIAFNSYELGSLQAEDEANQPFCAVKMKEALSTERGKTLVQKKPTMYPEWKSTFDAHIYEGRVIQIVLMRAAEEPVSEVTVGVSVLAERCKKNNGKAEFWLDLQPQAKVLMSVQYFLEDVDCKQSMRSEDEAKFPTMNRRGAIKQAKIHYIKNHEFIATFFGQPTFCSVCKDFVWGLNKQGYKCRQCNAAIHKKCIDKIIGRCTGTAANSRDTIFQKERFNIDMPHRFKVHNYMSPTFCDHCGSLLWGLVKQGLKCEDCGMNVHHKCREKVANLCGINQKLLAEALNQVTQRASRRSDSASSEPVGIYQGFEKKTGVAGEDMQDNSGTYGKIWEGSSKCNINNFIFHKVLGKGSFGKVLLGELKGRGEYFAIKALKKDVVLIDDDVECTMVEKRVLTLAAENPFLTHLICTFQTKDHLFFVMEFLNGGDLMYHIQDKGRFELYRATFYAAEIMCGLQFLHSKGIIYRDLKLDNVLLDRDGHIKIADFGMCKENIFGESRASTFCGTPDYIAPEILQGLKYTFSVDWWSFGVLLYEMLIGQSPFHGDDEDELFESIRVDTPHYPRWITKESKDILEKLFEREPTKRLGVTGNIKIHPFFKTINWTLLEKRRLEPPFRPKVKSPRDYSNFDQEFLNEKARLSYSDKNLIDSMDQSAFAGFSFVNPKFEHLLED

[3] = molecular target: Ribosomal protein S6 kinase alpha-3 (Homo sapiens) (UniProt P51812); test: Inhibition of human full length RSK2 expressed in baculovirus assessed as substrate phosphorylation using fluorescence-labelled peptides as substrate at 0.06 uM after 90 mins by microfluidic peptide phosphorylation assay
Sequence of Ribosomal protein S6 kinase alpha-3 (Homo sapiens) (P51812 whole entry, the tested form may be a part): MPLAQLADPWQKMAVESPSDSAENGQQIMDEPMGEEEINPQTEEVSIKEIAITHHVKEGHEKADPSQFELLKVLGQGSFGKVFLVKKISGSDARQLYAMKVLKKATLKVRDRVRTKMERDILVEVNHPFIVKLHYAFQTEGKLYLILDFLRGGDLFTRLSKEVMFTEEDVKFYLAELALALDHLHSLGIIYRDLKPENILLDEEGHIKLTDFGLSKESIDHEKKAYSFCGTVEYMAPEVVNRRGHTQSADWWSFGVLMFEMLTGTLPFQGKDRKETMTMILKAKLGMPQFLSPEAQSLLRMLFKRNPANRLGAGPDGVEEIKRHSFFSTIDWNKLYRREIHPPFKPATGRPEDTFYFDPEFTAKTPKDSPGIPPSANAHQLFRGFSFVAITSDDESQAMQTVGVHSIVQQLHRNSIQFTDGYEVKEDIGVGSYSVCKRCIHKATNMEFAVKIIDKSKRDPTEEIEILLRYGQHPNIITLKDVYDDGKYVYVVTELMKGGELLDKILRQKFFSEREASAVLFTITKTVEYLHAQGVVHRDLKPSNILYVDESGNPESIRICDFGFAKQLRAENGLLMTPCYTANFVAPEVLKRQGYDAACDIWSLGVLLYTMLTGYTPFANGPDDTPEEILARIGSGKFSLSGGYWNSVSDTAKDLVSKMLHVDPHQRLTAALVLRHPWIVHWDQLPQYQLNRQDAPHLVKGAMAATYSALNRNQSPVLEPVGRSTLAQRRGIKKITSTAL

[4] = molecular target: Protein kinase C alpha type (Homo sapiens) (UniProt P17252); test: Inhibition of human truncated PKC alpha expressed in baculovirus assessed as substrate phosphorylation using fluorescence-labelled peptides as substrate at 420 uM after 90 mins by microfluidic peptide phosphorylation assay
[5] = molecular target: Tyrosine-protein kinase HCK (Homo sapiens) (UniProt P08631); test: Inhibition of human HCK catalytic domain expressed in baculovirus assessed as substrate phosphorylation using fluorescence-labelled peptides as substrate at 420 uM after 90 mins by microfluidic peptide phosphorylation assay
Sequence of Tyrosine-protein kinase HCK (Homo sapiens) (P08631 2-526 limits assumed): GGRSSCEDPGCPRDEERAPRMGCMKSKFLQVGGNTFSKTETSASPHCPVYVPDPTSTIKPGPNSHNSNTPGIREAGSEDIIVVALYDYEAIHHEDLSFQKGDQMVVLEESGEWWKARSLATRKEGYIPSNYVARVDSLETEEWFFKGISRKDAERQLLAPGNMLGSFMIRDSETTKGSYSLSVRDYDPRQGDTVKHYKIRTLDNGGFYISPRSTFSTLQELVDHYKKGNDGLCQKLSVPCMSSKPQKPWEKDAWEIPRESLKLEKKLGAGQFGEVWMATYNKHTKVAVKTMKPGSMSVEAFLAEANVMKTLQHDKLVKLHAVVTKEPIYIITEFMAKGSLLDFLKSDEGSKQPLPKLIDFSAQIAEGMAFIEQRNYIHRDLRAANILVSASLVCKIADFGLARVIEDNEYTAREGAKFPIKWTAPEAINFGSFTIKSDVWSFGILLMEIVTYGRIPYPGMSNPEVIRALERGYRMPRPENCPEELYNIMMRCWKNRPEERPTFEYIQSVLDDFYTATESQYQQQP

[6] = molecular target: Casein kinase I isoform alpha (Homo sapiens) (UniProt P48729); test: Inhibition of human full length CSNK1A1 expressed in baculovirus assessed as substrate phosphorylation using fluorescence-labelled peptides as substrate at 0.1 uM after 90 mins by microfluidic peptide phosphorylation assay
Sequence of Casein kinase I isoform alpha (Homo sapiens) (P48729 2-337 limits assumed): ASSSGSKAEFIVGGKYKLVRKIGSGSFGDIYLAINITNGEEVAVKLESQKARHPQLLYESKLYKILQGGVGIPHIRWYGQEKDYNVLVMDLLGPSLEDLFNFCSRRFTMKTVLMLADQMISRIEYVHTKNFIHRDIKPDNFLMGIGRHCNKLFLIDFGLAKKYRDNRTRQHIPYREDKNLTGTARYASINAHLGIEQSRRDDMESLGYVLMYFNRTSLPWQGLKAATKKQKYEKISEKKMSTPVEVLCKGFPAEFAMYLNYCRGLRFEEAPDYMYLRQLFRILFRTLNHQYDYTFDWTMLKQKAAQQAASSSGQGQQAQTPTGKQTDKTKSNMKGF

[7] = molecular target: Aurora kinase B (Homo sapiens) (UniProt Q96GD4); details: 0.1 uM
Description: Inhibition of human full length AurB expressed in baculovirus assessed as substrate phosphorylation using fluorescence-labelled peptides as substrate at 0.1 uM after 90 mins by microfluidic peptide phosphorylation assay

[8] = molecular target: Serine/threonine-protein kinase MARK1 (Homo sapiens) (UniProt Q9P0L2); details: 0.1 uM
Sequence of Serine/threonine-protein kinase MARK1 (Homo sapiens) (Q9P0L2 whole entry, looked up, the tested form may be a part): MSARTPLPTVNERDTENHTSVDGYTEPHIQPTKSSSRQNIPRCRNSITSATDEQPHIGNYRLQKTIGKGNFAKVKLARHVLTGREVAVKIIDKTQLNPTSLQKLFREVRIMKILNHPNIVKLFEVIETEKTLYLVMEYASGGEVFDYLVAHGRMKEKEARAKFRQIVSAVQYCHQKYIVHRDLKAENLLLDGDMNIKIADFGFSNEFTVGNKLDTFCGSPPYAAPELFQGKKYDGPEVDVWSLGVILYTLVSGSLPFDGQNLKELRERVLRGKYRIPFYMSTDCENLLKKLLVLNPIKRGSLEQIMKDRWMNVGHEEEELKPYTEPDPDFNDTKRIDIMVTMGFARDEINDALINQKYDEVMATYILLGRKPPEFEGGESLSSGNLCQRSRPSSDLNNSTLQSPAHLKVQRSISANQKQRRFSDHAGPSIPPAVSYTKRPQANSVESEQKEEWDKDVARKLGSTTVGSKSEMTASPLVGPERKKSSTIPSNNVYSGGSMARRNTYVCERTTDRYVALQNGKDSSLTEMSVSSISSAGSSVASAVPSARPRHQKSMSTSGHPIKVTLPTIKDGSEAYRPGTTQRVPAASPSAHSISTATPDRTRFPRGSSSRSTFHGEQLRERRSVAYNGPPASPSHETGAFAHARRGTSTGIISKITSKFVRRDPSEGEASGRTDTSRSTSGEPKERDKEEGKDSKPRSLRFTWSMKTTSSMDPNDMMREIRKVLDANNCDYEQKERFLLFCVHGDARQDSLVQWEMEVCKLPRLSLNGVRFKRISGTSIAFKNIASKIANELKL
Description: Inhibition of human full length MARK1 expressed in baculovirus assessed as substrate phosphorylation using fluorescence-labelled peptides as substrate at 0.1 uM after 90 mins by microfluidic peptide phosphorylation assay

[9] = tested on: Tyrosine-protein kinase ABL1 (Homo sapiens), P00519 [Q252H]; test: Inhibition of human truncated ABL Q252H mutant expressed in baculovirus assessed as substrate phosphorylation using fluorescence-labelled peptides as substrate at 9 uM after 90 mins by microfluidic peptide phosphorylation assay
[10] = molecular target: MAP kinase-activated protein kinase 3 (Homo sapiens) (UniProt Q16644); test: Inhibition of human full length MAPKAPK3 expressed in Escherichia coli cell assessed as substrate phosphorylation using fluorescence-labelled peptides as substrate at 9 uM after 90 mins by microfluidic peptide phosphorylation assay
[11] = molecular target: Fibroblast growth factor receptor 1 (Homo sapiens) (UniProt P11362); test: Inhibition of human FGFR1 catalytic domain expressed in baculovirus assessed as substrate phosphorylation using fluorescence-labelled peptides as substrate at 9 uM after 90 mins by microfluidic peptide phosphorylation assay
[12] = tested on: Tyrosine-protein kinase ABL1 (Homo sapiens), P00519 [H396P]; test: Inhibition of human truncated ABL H396P mutant expressed in baculovirus assessed as substrate phosphorylation using fluorescence-labelled peptides as substrate at 70 uM after 90 mins by microfluidic peptide phosphorylation assay
[13] = molecular target: T1, Serine/threonine-protein kinase BRSK1 (Homo sapiens) (UniProt Q8TDC3); test: Inhibition of human full length BRSK1 expressed in baculovirus assessed as substrate phosphorylation using fluorescence-labelled peptides as substrate at 95 uM after 90 mins by microfluidic peptide phosphorylation assay
T1 sequence (whole entry): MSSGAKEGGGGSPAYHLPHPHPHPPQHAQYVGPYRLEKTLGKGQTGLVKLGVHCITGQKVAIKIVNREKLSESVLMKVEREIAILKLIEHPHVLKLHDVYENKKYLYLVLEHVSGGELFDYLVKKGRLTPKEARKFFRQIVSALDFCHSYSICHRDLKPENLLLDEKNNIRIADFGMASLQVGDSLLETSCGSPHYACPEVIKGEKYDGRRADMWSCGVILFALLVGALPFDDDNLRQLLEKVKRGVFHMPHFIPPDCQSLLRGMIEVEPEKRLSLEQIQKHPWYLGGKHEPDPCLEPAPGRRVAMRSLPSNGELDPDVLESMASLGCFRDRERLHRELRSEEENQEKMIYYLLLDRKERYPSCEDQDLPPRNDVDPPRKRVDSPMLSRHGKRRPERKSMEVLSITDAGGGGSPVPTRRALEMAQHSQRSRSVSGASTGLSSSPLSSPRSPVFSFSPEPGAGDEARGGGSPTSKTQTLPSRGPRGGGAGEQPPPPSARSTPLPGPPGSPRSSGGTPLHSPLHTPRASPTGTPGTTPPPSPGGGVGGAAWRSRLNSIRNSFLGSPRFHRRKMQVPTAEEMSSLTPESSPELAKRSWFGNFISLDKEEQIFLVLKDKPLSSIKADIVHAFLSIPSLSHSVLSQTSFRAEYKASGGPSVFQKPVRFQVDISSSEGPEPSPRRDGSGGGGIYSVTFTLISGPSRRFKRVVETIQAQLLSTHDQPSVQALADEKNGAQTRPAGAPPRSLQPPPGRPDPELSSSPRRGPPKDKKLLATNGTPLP

[14] = molecular target: Dual specificity tyrosine-phosphorylation-regulated kinase 1A (Rattus norvegicus) (UniProt Q63470); test: Inhibition of rat full length DYRK1a expressed in Escherichia coli cell assessed as substrate phosphorylation using fluorescence-labelled peptides as substrate at 95 uM after 90 mins by microfluidic peptide phosphorylation assay
[15] = molecular target: Vascular endothelial growth factor receptor 2 (Homo sapiens) (UniProt P35968); test: Inhibition of human KDR cytoplasmic domain expressed in baculovirus assessed as substrate phosphorylation using fluorescence-labelled peptides as substrate at 95 uM after 90 mins by microfluidic peptide phosphorylation assay
[16] = molecular target: Fibroblast growth factor receptor 3 (Homo sapiens) (UniProt P22607); test: Inhibition of human FGFR3 catalytic domain expressed in baculovirus assessed as substrate phosphorylation using fluorescence-labelled peptides as substrate at 8 uM after 90 mins by microfluidic peptide phosphorylation assay
[17] = molecular target: Epidermal growth factor receptor (Homo sapiens) (UniProt P00533); test: Inhibition of human EGFR catalytic domain expressed in baculovirus assessed as substrate phosphorylation using fluorescence-labelled peptides as substrate at 1000 uM after 90 mins by microfluidic peptide phosphorylation assay
[18] = molecular target: Serine/threonine-protein kinase PAK 2 (Homo sapiens) (UniProt Q13177); test: Inhibition of human truncated PAK2 expressed in Escherichia coli cell assessed as substrate phosphorylation using fluorescence-labelled peptides as substrate at 2 uM after 90 mins by microfluidic peptide phosphorylation assay
[19] = molecular target: Insulin-like growth factor 1 receptor (Homo sapiens) (UniProt P08069); test: Inhibition of human IGF1R catalytic domain expressed in baculovirus assessed as substrate phosphorylation using fluorescence-labelled peptides as substrate at 2 uM after 90 mins by microfluidic peptide phosphorylation assay
[20] = molecular target: Ribosomal protein S6 kinase alpha-4 (Homo sapiens) (UniProt O75676); test: Inhibition of human full length MSK2 expressed in baculovirus assessed as substrate phosphorylation using fluorescence-labelled peptides as substrate at 2 uM after 90 mins by microfluidic peptide phosphorylation assay
[21] = molecular target: Platelet-derived growth factor receptor alpha (Homo sapiens) (UniProt P16234); test: Inhibition of human PDGFR alpha catalytic domain expressed in baculovirus assessed as substrate phosphorylation using fluorescence-labelled peptides as substrate at 2 uM after 90 mins by microfluidic peptide phosphorylation assay
Sequence of Platelet-derived growth factor receptor alpha (Homo sapiens) (P16234 whole entry, the tested form may be a part): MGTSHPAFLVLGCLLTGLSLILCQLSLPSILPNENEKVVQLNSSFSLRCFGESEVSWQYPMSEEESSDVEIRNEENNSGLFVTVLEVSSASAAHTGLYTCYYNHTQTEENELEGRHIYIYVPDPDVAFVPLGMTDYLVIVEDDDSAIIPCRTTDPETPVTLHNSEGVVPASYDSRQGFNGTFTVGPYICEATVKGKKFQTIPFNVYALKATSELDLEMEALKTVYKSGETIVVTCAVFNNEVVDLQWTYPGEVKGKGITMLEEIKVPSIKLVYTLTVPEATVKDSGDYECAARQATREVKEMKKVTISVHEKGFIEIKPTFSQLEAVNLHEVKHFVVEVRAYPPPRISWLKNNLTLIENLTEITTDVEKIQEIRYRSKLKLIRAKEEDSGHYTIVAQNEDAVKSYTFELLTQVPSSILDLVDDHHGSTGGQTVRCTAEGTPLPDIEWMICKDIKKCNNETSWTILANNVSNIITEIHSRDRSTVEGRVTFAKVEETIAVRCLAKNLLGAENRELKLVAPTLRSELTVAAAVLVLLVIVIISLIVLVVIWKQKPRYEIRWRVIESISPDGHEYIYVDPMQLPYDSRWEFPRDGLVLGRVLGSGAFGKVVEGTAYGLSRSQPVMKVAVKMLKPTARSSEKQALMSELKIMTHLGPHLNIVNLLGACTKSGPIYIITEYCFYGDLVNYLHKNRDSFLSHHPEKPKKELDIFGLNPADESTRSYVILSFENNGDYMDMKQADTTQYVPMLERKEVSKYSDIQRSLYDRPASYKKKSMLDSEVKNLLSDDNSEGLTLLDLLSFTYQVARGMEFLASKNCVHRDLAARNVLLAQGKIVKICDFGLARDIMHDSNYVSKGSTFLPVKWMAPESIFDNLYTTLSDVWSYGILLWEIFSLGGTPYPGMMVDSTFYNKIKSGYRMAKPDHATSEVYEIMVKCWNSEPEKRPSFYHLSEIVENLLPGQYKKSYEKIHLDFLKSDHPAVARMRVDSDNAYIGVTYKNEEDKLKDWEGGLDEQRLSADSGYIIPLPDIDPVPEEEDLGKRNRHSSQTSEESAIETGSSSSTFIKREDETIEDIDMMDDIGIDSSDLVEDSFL

Compound `NC1(Cc2ccc(Cl)cc2)CCN(c2ncnc3[nH]ccc23)CC1` has an inhibition [1] of 0%, an inhibition [2] of 2% and an inhibition [3] of 0.5%.

With `c1nc(N2CCOCC2)c2nc[nH]c2n1` the inhibition [4] was 64.5% and the inhibition [5] was 69.5%.

`C[C@H](CN(C)C)Oc1nc(Nc2cc3cccc(Cl)c3cn2)cnc1C#N` showed an inhibition [6] of 2.5%, an inhibition [7] of 0% and an inhibition [8] of 0%.

`NCC1CN(c2ncnc3[nH]c4cnccc4c23)CCO1` (stereo unspecified) gave an inhibition [9] of 6%, an inhibition [10] of 74% and an inhibition [11] of 55.5%.

`CNCc1ccc(-c2ncnc3[nH]cnc23)cc1` showed an inhibition [12] of 42.5%.

`NCCc1ccc(-c2ncnc3[nH]cnc23)cc1` gave an inhibition [13] of 44%, an inhibition [14] of 79% and an inhibition [15] of 72.5%.

Work on `NCC1CCN(c2ncnc3[nH]ccc23)CC1` yielded an inhibition [16] of 0.5%.

For `c1cnc2[nH]ccc2c1`, the inhibition [17] was 13.5%.

Work on `NC1CCN(c2ncnc3[nH]ccc23)CC1` yielded an inhibition [18] of 3.5%, an inhibition [19] of 0% and an inhibition [20] of 15%. The inhibition [21] was 5%.
